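How tested: cells in 96-well plates exposed to compound for 48 hours at five concentrations. Abbreviation: GI50, concentration required for 50% inhibition of growth.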 Calls of active or inactive are those of the source. No stated cut-off is given here; in the data, active = GI50 up to about 1.1 µM and inactive = higher.
Legend:
Test in all cases: NCI anticancer screen, dose series, 48 h
UACC-62 = system: UACC-62
SF-295 = system: SF-295
SK-OV-3 = system: SK-OV-3
M14 = system: M14
786-0 = system: 786-0
NCI-H226 = system: NCI-H226
K562 = system: K562
HCT-15 = system: HCT-15
HCC 2998 = system: HCC 2998
SK-MEL-2 = system: SK-MEL-2
HL-60 = system: HL-60
OVCAR-3 = system: OVCAR-3
MCF7 = system: MCF7
HT-29 = system: HT-29
SK-MEL-28 = system: SK-MEL-28
CCRF-CEM = system: CCRF-CEM
OVCAR-4 = system: OVCAR-4
RPMI-8226 = system: RPMI-8226
HOP-92 = system: HOP-92
LOX IMVI = system: LOX IMVI

Row | Structure (SMILES) | GI50 (UACC-62) | GI50 (SF-295) | GI50 (SK-OV-3) | GI50 (M14) | GI50 (786-0) | GI50 (NCI-H226) | GI50 (K562) | GI50 (HCT-15) [µM] | GI50 (HCC 2998) | GI50 (SK-MEL-2) | GI50 (HL-60) | GI50 (OVCAR-3) | GI50 (MCF7) | GI50 (HT-29) | GI50 (SK-MEL-28) | GI50 (CCRF-CEM) | GI50 (OVCAR-4) | GI50 (RPMI-8226) | GI50 (HOP-92) | GI50 (LOX IMVI)
1 | CN1c2ccccc2SC2C(c3ccccc3)=NOC21 (configuration not stated) | 35.1 µM (inactive) | 30.7 µM (inactive) | 64.1 µM (inactive) | 38.2 µM (inactive) | 35.4 µM (inactive) | 47.6 µM (inactive) | 22.6 µM (inactive) | 15.5 | 23.3 µM (inactive) | 38.5 µM (inactive) | 53.7 µM (inactive) | 56.1 µM (inactive) | 42.7 µM (inactive) | 30.1 µM (inactive) | 31.1 µM (inactive) | > 100 µM (inactive) | 65.8 µM (inactive) | – | – | –
2 | Clc1ccccc1C(n1ncc2ccccc21)n1ncc2ccccc21 | > 10 µM (inactive) | 64.6 µM (inactive) | > 10 µM (inactive) | 31 µM (inactive) | 65.9 µM (inactive) | 33.7 µM (inactive) | 28.4 µM (inactive) | 38.3 | 31.5 µM (inactive) | 33.3 µM (inactive) | 18.6 µM (inactive) | 80.4 µM (inactive) | – | 35.9 µM (inactive) | 53.2 µM (inactive) | 28.5 µM (inactive) | 51.6 µM (inactive) | 18.2 µM (inactive) | 24.3 µM (inactive) | 49.9 µM (inactive)
3 | CCOC(=O)c1c(-c2cccc(Cl)c2)c(C(=O)OC)c(C)c2sc(C=O)nc12 | 15.8 µM (inactive) | 15.8 µM (inactive) | 26.7 µM (inactive) | 17 µM (inactive) | – | 21.8 µM (inactive) | 27.5 µM (inactive) | 19.8 | – | 16.8 µM (inactive) | 17.7 µM (inactive) | 15.2 µM (inactive) | 17.8 µM (inactive) | 21 µM (inactive) | 18 µM (inactive) | 12.8 µM (inactive) | 20 µM (inactive) | 14.1 µM (inactive) | 15.7 µM (inactive) | 14.3 µM (inactive)
4 | NCC(=O)N[C@H]1c2ccsc2/C(=N/O)[C@H]1O | > 100 µM (inactive) | > 100 µM (inactive) | > 100 µM (inactive) | > 100 µM (inactive) | – | > 100 µM (inactive) | > 100 µM (inactive) | > 100 | > 100 µM (inactive) | > 100 µM (inactive) | > 100 µM (inactive) | > 100 µM (inactive) | > 100 µM (inactive) | > 100 µM (inactive) | > 100 µM (inactive) | > 100 µM (inactive) | 68.9 µM (inactive) | – | > 100 µM (inactive) | > 100 µM (inactive)
5 | Oc1cn(-c2ccc(Cl)cc2)nc1-c1nnc(-c2ccccc2)o1 | 2.09 µM (inactive) | 0.102 µM (active) | 12.9 µM (inactive) | – | – | 0.931 µM (active) | 0.122 µM (active) | 0.262 | – | 16.9 µM (inactive) | 0.181 µM (active) | 0.404 µM (active) | 0.263 µM (active) | 2.83 µM (inactive) | 15.2 µM (inactive) | – | 19.5 µM (inactive) | 0.728 µM (active) | 18.8 µM (inactive) | –
6 | O=C1Nc2ccccc2C(=O)/C1=C/NC(=S)NCCc1ccccc1 | > 100 µM (inactive) | > 100 µM (inactive) | > 100 µM (inactive) | > 100 µM (inactive) | > 100 µM (inactive) | > 100 µM (inactive) | – | > 100 | > 100 µM (inactive) | > 100 µM (inactive) | > 100 µM (inactive) | > 100 µM (inactive) | > 100 µM (inactive) | > 100 µM (inactive) | > 100 µM (inactive) | – | > 100 µM (inactive) | – | > 100 µM (inactive) | > 100 µM (inactive)
7 | Cc1ccnn1CCc1ccc(Cl)cc1Cl | 8.73 µM (inactive) | 18 µM (inactive) | 65.9 µM (inactive) | 24.4 µM (inactive) | – | – | 29.1 µM (inactive) | 36.5 | – | – | 7.69 µM (inactive) | 20.5 µM (inactive) | 31.9 µM (inactive) | 36.8 µM (inactive) | 35.4 µM (inactive) | 25.4 µM (inactive) | 11.7 µM (inactive) | 8.73 µM (inactive) | – | 33 µM (inactive)
8 | COC(=O)c1sc(=O)n(-c2ccccc2)c1SCc1ccccc1 | > 100 µM (inactive) | > 100 µM (inactive) | > 100 µM (inactive) | > 100 µM (inactive) | > 100 µM (inactive) | > 100 µM (inactive) | > 100 µM (inactive) | > 100 | > 100 µM (inactive) | > 100 µM (inactive) | > 100 µM (inactive) | > 100 µM (inactive) | – | > 100 µM (inactive) | > 100 µM (inactive) | > 100 µM (inactive) | > 100 µM (inactive) | > 100 µM (inactive) | 30.1 µM (inactive) | > 100 µM (inactive)
9 | Clc1cc2nsnc2c(Cl)n1 | 26.5 µM (inactive) | 41.5 µM (inactive) | 2.62 µM (inactive) | 15.2 µM (inactive) | 16.9 µM (inactive) | 20.6 µM (inactive) | 5.41 µM (inactive) | 21.3 | > 100 µM (inactive) | 17.2 µM (inactive) | 14.1 µM (inactive) | 17.9 µM (inactive) | – | 21.7 µM (inactive) | 20.1 µM (inactive) | 6.03 µM (inactive) | 17.1 µM (inactive) | 22.2 µM (inactive) | 16.6 µM (inactive) | 33 µM (inactive)
10 | O=S(=O)(O)c1ccc2cc(/N=N\c3cc(S(=O)(=O)O)c4cccnc4c3O)ccc2c1 | > 100 µM (inactive) | > 100 µM (inactive) | > 100 µM (inactive) | > 100 µM (inactive) | > 100 µM (inactive) | > 100 µM (inactive) | > 100 µM (inactive) | > 100 | – | > 100 µM (inactive) | 1.61 µM (inactive) | > 100 µM (inactive) | > 100 µM (inactive) | > 100 µM (inactive) | > 100 µM (inactive) | 29.7 µM (inactive) | > 100 µM (inactive) | > 100 µM (inactive) | > 100 µM (inactive) | > 100 µM (inactive)
11 | COc1cc(C(=O)C2CC3(CCC2(O)c2cc(OC)c(OC)c(OC)c2)CC(=O)Nc2ccccc2C3=O)cc(OC)c1OC (configuration not stated) | > 100 µM (inactive) | 98.2 µM (inactive) | > 100 µM (inactive) | 91.2 µM (inactive) | – | > 100 µM (inactive) | 63.8 µM (inactive) | 50.6 | 50.7 µM (inactive) | 89.9 µM (inactive) | 30.5 µM (inactive) | > 100 µM (inactive) | 60.4 µM (inactive) | > 100 µM (inactive) | > 100 µM (inactive) | 37.3 µM (inactive) | 20.2 µM (inactive) | – | 40.4 µM (inactive) | 67.6 µM (inactive)
12 | CCc1ccc(COC(=O)C2=C(C)NC(C)=C(C(=O)OCc3ccc(CC)cn3)C2C2=COCCO2)nc1 | 13.5 µM (inactive) | 24.9 µM (inactive) | 16.6 µM (inactive) | 16.9 µM (inactive) | 23.2 µM (inactive) | 16.2 µM (inactive) | 18.2 µM (inactive) | 22.7 | 19.9 µM (inactive) | – | 22.4 µM (inactive) | 19.7 µM (inactive) | 19.5 µM (inactive) | 21.4 µM (inactive) | 18.5 µM (inactive) | 16.2 µM (inactive) | 25.1 µM (inactive) | – | 20.7 µM (inactive) | 15.2 µM (inactive)

Source: ChEMBL document CHEMBL1201862, “PubChem BioAssay data set” (2004)
